Experiment [1] deals with A/Puerto Rico/8/34 (H1N1) with the NA-H274Y mutation. In kind it is cell-based, influenza A virus. The conditions noted are these: read-out: IC50 ± SD, 274.
The test system of experiment [2] is influenza A/PR/8/34 (H1N1) virus. In kind it is cell-based.

Results on two molecules are retold here after publication PMC7784547 (Bioorganic Chemistry, 2021).

The IC50 is the concentration that gives 50% inhibition. `C=Cc1c(C)c2cc3nc(c4c5[nH]c(cc6nc(cc1[nH]2)C(C)=C6CC)c(C)c5C(=O)C4)[C@@H](CCC(=O)O)[C@@H]3C` [PPa, pyropheophorbide a, reference compound]: the half-inhibitory concentration (IC50) in experiment [1] worked out at 1050 ± 990 nM. Regarding protoporphyrin IX [PPIX], the IC50 in experiment [1] was determined as 1240 ± 530 nM. For the same molecule, in experiment [2], the “IC50 after passage of ten generations” value is on record as 2.18 ± 0.71 µg/mL.
